Reference: PubChem BioAssay AID248 (DTP/NCI, 2004)
Values joined by “and” are separate entries in the source; they are usually repeats but may differ in a detail not shown here. Equal values may be shown once. Inconclusive results and toxic doses are left out. Rule as the data show it: active = T/C of 150% or more; inactive = T/C below 125%.

Test system: L1210 leukemia ip in BDF1 mice, survival T/C
Test: NCI In Vivo Anticancer Drug Screen. Data for tumor model L1210 Leukemia (intraperitoneal) in B6D2F1 (BDF1) mice
Conditions: endpoint: mean survival time, higher = longer survival
Summary of the method: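 Tumor was transplanted into mice, which were then dosed with test compound or vehicle alone. Survival was recorded for each group, and the treated figure was expressed relative to the control figure.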

[1] = dose: 100.0 mg/kg/injection, schedule: Q01DX001 (ip), vehicle: saline
[2] = dose: 200.0 mg/kg/injection, schedule: Q01DX001 (ip), vehicle: saline
[3] = dose: 400.0 mg/kg/injection, schedule: Q01DX001 (ip), vehicle: saline
[4] = dose: 100.0 mg/kg/injection, schedule: Q01DX001 (ip), vehicle: saline with Tween-80
[5] = dose: 100.0 mg/kg/injection, schedule: Q01DX009 (ip), vehicle: saline with Tween-80
[6] = dose: 200.0 mg/kg/injection, schedule: Q01DX001 (ip), vehicle: saline with Tween-80
[7] = dose: 200.0 mg/kg/injection, schedule: Q01DX009 (ip), vehicle: saline with Tween-80
[8] = dose: 400.0 mg/kg/injection, schedule: Q01DX001 (ip), vehicle: saline with Tween-80
[9] = dose: 400.0 mg/kg/injection, schedule: Q01DX009 (ip), vehicle: saline with Tween-80
[10] = dose: 100.0 mg/kg/injection, schedule: Q01DX009 (ip), vehicle: Klucel (hydroxypropylcellulose) (HPC)
[11] = dose: 100.0 mg/kg/injection, schedule: Q04DX003 (ip), vehicle: Klucel (hydroxypropylcellulose) (HPC)
[12] = dose: 200.0 mg/kg/injection, schedule: Q01DX009 (ip), vehicle: Klucel (hydroxypropylcellulose) (HPC)
[13] = dose: 200.0 mg/kg/injection, schedule: Q04DX003 (ip), vehicle: Klucel (hydroxypropylcellulose) (HPC)
[14] = dose: 400.0 mg/kg/injection, schedule: Q04DX003 (ip), vehicle: Klucel (hydroxypropylcellulose) (HPC)
[15] = dose: 100.0 mg/kg/injection, schedule: Q04DX002 (ip), vehicle: Klucel (hydroxypropylcellulose) (HPC)
[16] = dose: 100.0 mg/kg/injection, schedule: Q04DX003 (ip), vehicle: saline with Tween-80
[17] = dose: 200.0 mg/kg/injection, schedule: Q04DX003 (ip), vehicle: saline with Tween-80
[18] = dose: 400.0 mg/kg/injection, schedule: Q04DX003 (ip), vehicle: saline with Tween-80

Measured: T/C

O=[N+]([O-])c1ccc(C2=NCCS2)cc1
inactive: dose: 87.0 mg/kg/injection, schedule: Q04DX003 (ip), vehicle: Klucel (hydroxypropylcellulose) (HPC) 102 % of control | dose: 175.0 mg/kg/injection, schedule: Q04DX003 (ip), vehicle: Klucel (hydroxypropylcellulose) (HPC) 102 % of control | dose: 350.0 mg/kg/injection, schedule: Q04DX003 (ip), vehicle: Klucel (hydroxypropylcellulose) (HPC) 102 % of control

O=C(O)C1C2C=CC(O2)C1C(=O)NCc1cccnc1 (centres undefined)
inactive: [1] 106 % of control | [2] 94 % of control | [3] 95 % of control

O=C(Cc1ccccc1[N+](=O)[O-])NCCc1ccc2c(c1)OCO2
inactive: dose: 100.0 mg/kg/injection, schedule: Q01DX001 (ip), vehicle: other 86 % of control | dose: 200.0 mg/kg/injection, schedule: Q01DX001 (ip), vehicle: other 89 % of control | dose: 400.0 mg/kg/injection, schedule: Q01DX001 (ip), vehicle: other 89 % of control

O=C1C(c2ccc(O)cc2)C2C=CC(C2)N1O (centres undefined)
inactive: [1] 95 % of control | [2] 103 % of control | [3] 95 % of control

O=C(/C=C/c1ccccc1)NC(=S)Nc1ccc(O)cc1
inactive: [4] 96 % of control | [5] 95 % of control and 107 % of control | dose: 100.0 mg/kg/injection, schedule: Q04DX002 (ip), vehicle: saline with Tween-80 111 % of control and 88 % of control | [6] 98 % of control | [7] 96 % of control and 92 % of control | dose: 200.0 mg/kg/injection, schedule: Q04DX002 (ip), vehicle: saline with Tween-80 95 % of control and 111 % of control | [8] 96 % of control | [9] 101 % of control | dose: 400.0 mg/kg/injection, schedule: Q04DX002 (ip), vehicle: saline with Tween-80 95 % of control

CCC(C)(C)c1cccc2ccccc12
inactive: [10] 96 % of control | [11] 102 % of control | [12] 100 % of control | [13] 106 % of control | dose: 400.0 mg/kg/injection, schedule: Q01DX009 (ip), vehicle: Klucel (hydroxypropylcellulose) (HPC) 86 % of control | [14] 101 % of control

O=[N+]([O-])c1ccc(C2CCCCC2)cc1
inactive: dose: 25.0 mg/kg/injection, schedule: Q04DX002 (ip), vehicle: Klucel (hydroxypropylcellulose) (HPC) 109 % of control | dose: 50.0 mg/kg/injection, schedule: Q04DX002 (ip), vehicle: Klucel (hydroxypropylcellulose) (HPC) 109 % of control | [15] 102 % of control

CC1(Br)Cc2ccccc2C1=O (centres undefined)
inactive: [16] 107 % of control | [17] 94 % of control | [18] 103 % of control

N=C(N)c1cccc(NC(=O)c2cccc(C(=O)Nc3cccc(C(=N)N)c3)c2)c1
inactive: dose: 15.0 mg/kg/injection, schedule: Q01DX Z (ip), vehicle: saline 95 % of control | dose: 30.0 mg/kg/injection, schedule: Q01DX Z (ip), vehicle: saline 98 % of control | dose: 60.0 mg/kg/injection, schedule: Q01DX Z (ip), vehicle: saline 98 % of control | dose: 120.0 mg/kg/injection, schedule: Q01DX Z (ip), vehicle: saline 93 % of control | dose: 125.0 mg/kg/injection, schedule: Q01DX Z (ip), vehicle: water 96 % of control | dose: 250.0 mg/kg/injection, schedule: Q01DX Z (ip), vehicle: water 98 % of control | dose: 500.0 mg/kg/injection, schedule: Q01DX Z (ip), vehicle: water 104 % of control

N=c1ccn(C(=O)C2=Cc3ccccc3OC2)cc1
inactive: dose: 5.0 mg/kg/injection, schedule: Q01DX009 (ip), vehicle: saline with Tween-80 101 % of control | dose: 10.0 mg/kg/injection, schedule: Q01DX009 (ip), vehicle: saline with Tween-80 90 % of control | dose: 10.0 mg/kg/injection, schedule: Q04DX003 (ip), vehicle: saline with Tween-80 100 % of control | dose: 20.0 mg/kg/injection, schedule: Q01DX009 (ip), vehicle: saline with Tween-80 96 % of control | dose: 20.0 mg/kg/injection, schedule: Q04DX003 (ip), vehicle: saline with Tween-80 98 % of control

Nc1nnnn1-c1ccc(O)cc1
inactive: [4] 101 % of control | [6] 103 % of control | [8] 99 % of control

Cc1ccc(-n2c(=O)c(N=Nc3ccccc3C)c(O)n(-c3ccccc3Cl)c2=S)cc1
inactive: dose: 50.0 mg/kg/injection, schedule: Q01DX001 (ip), vehicle: Klucel (hydroxypropylcellulose) (HPC) 104 % of control | dose: 100.0 mg/kg/injection, schedule: Q01DX001 (ip), vehicle: Klucel (hydroxypropylcellulose) (HPC) 94 % of control | dose: 200.0 mg/kg/injection, schedule: Q01DX001 (ip), vehicle: Klucel (hydroxypropylcellulose) (HPC) 98 % of control

CCOC(=O)C1(C(=O)OCC)CCC(OCC)N1C(=O)c1cc2c(cc1[N+](=O)[O-])OCO2 (centres undefined)
inactive: [11] 99 % of control | [13] 105 % of control | [14] 97 % of control

COc1ccc([N+](=O)[O-])cc1NC(=O)Oc1ccc(SC)cc1
inactive: dose: 50.0 mg/kg/injection, schedule: Q01DX009 (ip), vehicle: Klucel (hydroxypropylcellulose) (HPC) 111 % of control | [10] 92 % of control | [12] 100 % of control

CCOc1ccc(N)c([N+](=O)[O-])c1
inactive: [1] 100 % of control | [2] 107 % of control | [3] 105 % of control

Cc1ccc(C(=O)NCCCOc2ccc([N+](=O)[O-])cc2Cl)cc1S(=O)(=O)F
inactive: [5] 106 % of control | [16] 86 % of control | [7] 96 % of control | [17] 97 % of control | [9] 98 % of control | [18] 103 % of control

O=C(Nc1ccc(Cl)cc1Cl)Nc1ccc(Cl)cc1Cl
inactive: [15] 91 % of control | dose: 200.0 mg/kg/injection, schedule: Q04DX002 (ip), vehicle: Klucel (hydroxypropylcellulose) (HPC) 94 % of control

O=C1c2ccccc2-c2cc(Cl)c([N+](=O)[O-])cc21
inactive: dose: 50.0 mg/kg/injection, schedule: Q01DX001 (ip), vehicle: carboxymethylcellulose (CMC) 98 % of control | dose: 100.0 mg/kg/injection, schedule: Q01DX001 (ip), vehicle: carboxymethylcellulose (CMC) 96 % of control | dose: 200.0 mg/kg/injection, schedule: Q01DX001 (ip), vehicle: carboxymethylcellulose (CMC) 98 % of control | dose: 400.0 mg/kg/injection, schedule: Q01DX001 (ip), vehicle: carboxymethylcellulose (CMC) 91 % of control

CC(C)(C)NC(=O)CCC(=O)O
inactive: dose: 75.0 mg/kg/injection, schedule: Q04DX002 (ip), vehicle: Klucel (hydroxypropylcellulose) (HPC) 89 % of control | dose: 150.0 mg/kg/injection, schedule: Q04DX002 (ip), vehicle: Klucel (hydroxypropylcellulose) (HPC) 92 % of control | dose: 300.0 mg/kg/injection, schedule: Q04DX002 (ip), vehicle: Klucel (hydroxypropylcellulose) (HPC) 100 % of control

C1CC2C3CCC(C3)C2C1 (centres undefined)
inactive: [16] 94 % of control | [17] 90 % of control | [18] 97 % of control

C=CN1C(=O)N(C=C)C(C)(CC(C)C)C1=O (centres undefined)
inactive: dose: 50.0 mg/kg/injection, schedule: Q01DX009 (ip), vehicle: saline with Tween-80 104 % of control | [5] 103 % of control | [16] 92 % of control | [7] 103 % of control | [17] 92 % of control

O=C1C2C3SC(c4nc5ccccc5cc43)C2C(=O)N1c1ccccc1 (centres undefined)
inactive: [8] 91 % of control
